In PubChem BioAssay (NCI):
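Five compound concentrations were applied to cells in 96-well plates for 48 hours; endpoints were derived by simple linear interpolation of the resulting dose-response curve. GI50 marks 50% less growth. At the TGI there is no net growth.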

Columns and labels:
Test in all cases: DTP human tumour cell line panel, 48 h
HCC-2998 colon = system: HCC-2998 colon
HT29 colon = system: HT29 colon
MOLT-4 leukemia = system: MOLT-4 leukemia
RPMI-8226 leukemia = system: RPMI-8226 leukemia
BT-549 breast = system: BT-549 breast
CAKI-1 renal = system: CAKI-1 renal
SK-MEL-28 melanoma = system: SK-MEL-28 melanoma
DU-145 prostate = system: DU-145 prostate
SK-MEL-2 melanoma = system: SK-MEL-2 melanoma
UO-31 renal = system: UO-31 renal
OVCAR-5 ovarian = system: OVCAR-5 ovarian
HS 578T breast = system: HS 578T breast
KM12 colon = system: KM12 colon
TK-10 renal = system: TK-10 renal
A498 renal = system: A498 renal
RXF 393 renal = system: RXF 393 renal
OVCAR-3 ovarian = system: OVCAR-3 ovarian
MDA-MB-231 breast = system: MDA-MB-231 breast
K-562 leukemia = system: K-562 leukemia
SK-MEL-5 melanoma = system: SK-MEL-5 melanoma
HL-60(TB) leukemia = system: HL-60(TB) leukemia
ACHN renal = system: ACHN renal
NCI-H226 lung = system: NCI-H226 lung
SNB-19 CNS = system: SNB-19 CNS
SN12C renal = system: SN12C renal
SNB-75 CNS = system: SNB-75 CNS
HOP-62 NSCLC = system: HOP-62 NSCLC
PC-3 prostate = system: PC-3 prostate
COLO 205 colon = system: COLO 205 colon
SW-620 colon = system: SW-620 colon
MDA-MB-435 = system: MDA-MB-435
CCRF-CEM leukemia = system: CCRF-CEM leukemia
HCT-15 colon = system: HCT-15 colon
U251 CNS = system: U251 CNS
NCI-H23 lung = system: NCI-H23 lung
NCI-H460 lung = system: NCI-H460 lung
OVCAR-4 ovarian = system: OVCAR-4 ovarian
SR leukemia = system: SR leukemia
M14 melanoma = system: M14 melanoma
LOX IMVI melanoma = system: LOX IMVI melanoma
T-47D breast = system: T-47D breast
A549 NSCLC = system: A549 NSCLC
HOP-92 NSCLC = system: HOP-92 NSCLC
UACC-257 melanoma = system: UACC-257 melanoma
HCT-116 colon = system: HCT-116 colon
UACC-62 melanoma = system: UACC-62 melanoma
NCI-H522 lung = system: NCI-H522 lung
SF-268 CNS = system: SF-268 CNS
IGROV1 ovarian = system: IGROV1 ovarian
SF-539 CNS = system: SF-539 CNS
EKVX NSCLC = system: EKVX NSCLC
MALME-3M melanoma = system: MALME-3M melanoma
MCF7 breast = system: MCF7 breast
SF-295 CNS = system: SF-295 CNS
SK-OV-3 ovarian = system: SK-OV-3 ovarian
786-0 renal = system: 786-0 renal
NCI/ADR-RES ovarian = system: NCI/ADR-RES ovarian
OVCAR-8 ovarian = system: OVCAR-8 ovarian

## Nc1cc(-c2c[nH]c3ccc(F)cc23)nc2cc(-c3c[nH]c4ccc(F)cc34)nn12
HCC-2998 colon
  GI50: 1.95 µM
  TGI: 3.47 µM
HT29 colon
  GI50: 1.8 µM
  TGI: 3.31 µM
MOLT-4 leukemia
  GI50: 2.33 µM
  TGI: 7.29 µM
RPMI-8226 leukemia
  GI50: 3.05 µM
  TGI: > 100 µM
BT-549 breast
  GI50: 13.3 µM
  TGI: 34.9 µM
CAKI-1 renal
  GI50: 2.03 µM
  TGI: 5.29 µM
SK-MEL-28 melanoma
  GI50: 1.83 µM
  TGI: 3.33 µM
DU-145 prostate
  GI50: 2.21 µM
  TGI: 4.73 µM
SK-MEL-2 melanoma
  GI50: 14.6 µM
  TGI: 35.3 µM
UO-31 renal
  GI50: 1.68 µM
  TGI: 3.45 µM
OVCAR-5 ovarian
  GI50: 1.83 µM
  TGI: 3.77 µM
HS 578T breast
  GI50: 2.35 µM
  TGI: 5.71 µM
KM12 colon
  GI50: 2 µM
  TGI: 4.26 µM
TK-10 renal
  GI50: 2.22 µM
  TGI: 4.19 µM
A498 renal
  GI50: 1.66 µM
  TGI: 3.25 µM
RXF 393 renal
  GI50: 1.88 µM
  TGI: 3.48 µM
OVCAR-3 ovarian
  GI50: 1.75 µM
  TGI: 3.19 µM
MDA-MB-231 breast
  GI50: 1.85 µM
  TGI: 3.49 µM
K-562 leukemia
  GI50: 2.92 µM
  TGI: > 100 µM
SK-MEL-5 melanoma
  GI50: 1.84 µM
  TGI: 3.28 µM
HL-60(TB) leukemia
  GI50: 1.94 µM
  TGI: 5.36 µM
ACHN renal
  GI50: 1.88 µM
  TGI: 3.46 µM
NCI-H226 lung
  GI50: 2.28 µM
  TGI: 5.52 µM
SNB-19 CNS
  GI50: 3.03 µM
  TGI: 8.97 µM
SN12C renal
  GI50: 1.92 µM
  TGI: 3.73 µM
SNB-75 CNS
  GI50: 16.3 µM
  TGI: 36.6 µM
HOP-62 NSCLC
  GI50: 2.06 µM
  TGI: 5.85 µM
PC-3 prostate
  GI50: 2.11 µM
  TGI: 5.31 µM
COLO 205 colon
  GI50: 1.74 µM
  TGI: 3.15 µM
SW-620 colon
  GI50: 1.78 µM
  TGI: 3.3 µM
MDA-MB-435
  GI50: 1.74 µM
  TGI: 3.39 µM
CCRF-CEM leukemia
  GI50: 3.13 µM
  TGI: > 100 µM
HCT-15 colon
  GI50: 1.79 µM
  TGI: 3.69 µM

## N#Cc1cnc2ccc(-c3cnc(N)nc3)cc2c1N1CCc2cc(F)c(Cl)cc21
HCC-2998 colon
  GI50: 0.572 µM
  TGI: 7.5 µM
HT29 colon
  GI50: 0.587 µM
  TGI: 9.74 µM
MOLT-4 leukemia
  GI50: 0.577 µM
  TGI: > 64.6 µM
RPMI-8226 leukemia
  GI50: 0.325 µM
  TGI: 3.19 µM
U251 CNS
  GI50: 0.714 µM
  TGI: 9.58 µM
BT-549 breast
  GI50: 0.239 µM
  TGI: 1.8 µM
NCI-H23 lung
  GI50: 1.01 µM
  TGI: 9.84 µM
CAKI-1 renal
  GI50: 0.268 µM
  TGI: 2.8 µM
NCI-H460 lung
  GI50: 0.425 µM
  TGI: 11 µM
SK-MEL-28 melanoma
  GI50: 0.703 µM
  TGI: 6.73 µM
DU-145 prostate
  GI50: 0.51 µM
  TGI: > 39.5 µM
SK-MEL-2 melanoma
  GI50: 0.531 µM
  TGI: 2.02 µM
UO-31 renal
  GI50: 0.142 µM
  TGI: 4.64 µM
OVCAR-5 ovarian
  GI50: 0.437 µM
  TGI: 11.3 µM
OVCAR-4 ovarian
  GI50: 0.314 µM
  TGI: 7.24 µM
SR leukemia
  GI50: 0.329 µM
  TGI: > 19.9 µM
M14 melanoma
  GI50: 0.612 µM
  TGI: 8.51 µM
LOX IMVI melanoma
  GI50: 0.355 µM
  TGI: 7.97 µM
HS 578T breast
  GI50: 0.186 µM
  TGI: 0.774 µM
T-47D breast
  GI50: 0.233 µM
KM12 colon
  GI50: 0.773 µM
  TGI: 4.18 µM
A549 NSCLC
  GI50: 0.479 µM
  TGI: 13.2 µM
TK-10 renal
  GI50: 0.26 µM
  TGI: 2 µM
HOP-92 NSCLC
  GI50: 0.201 µM
  TGI: 1.18 µM
A498 renal
  GI50: 0.147 µM
  TGI: 0.552 µM
RXF 393 renal
  GI50: 0.221 µM
  TGI: 1.25 µM
MDA-MB-231 breast
  GI50: 0.45 µM
  TGI: 7.93 µM
UACC-257 melanoma
  GI50: 1.3 µM
  TGI: 6.87 µM
K-562 leukemia
  GI50: 0.997 µM
  TGI: > 100 µM
SK-MEL-5 melanoma
  GI50: 1.22 µM
  TGI: 2.52 µM
HCT-116 colon
  GI50: 0.917 µM
  TGI: 2.64 µM
UACC-62 melanoma
  GI50: 0.363 µM
  TGI: 2.6 µM
NCI-H522 lung
  GI50: 1.27 µM
  TGI: 8.08 µM
HL-60(TB) leukemia
  GI50: 0.705 µM
  TGI: 4.38 µM
ACHN renal
  GI50: 0.489 µM
  TGI: 11.9 µM
SF-268 CNS
  GI50: 0.437 µM
  TGI: 5.28 µM
IGROV1 ovarian
  GI50: 0.235 µM
  TGI: 1.26 µM
NCI-H226 lung
  GI50: 0.555 µM
  TGI: 11.3 µM
SNB-19 CNS
  GI50: 0.964 µM
  TGI: 17.2 µM
SN12C renal
  GI50: 0.395 µM
  TGI: 14.7 µM
SNB-75 CNS
  GI50: 0.144 µM
  TGI: 0.834 µM
SF-539 CNS
  GI50: 0.505 µM
  TGI: 3.36 µM
EKVX NSCLC
  GI50: 0.496 µM
  TGI: 3.95 µM
MALME-3M melanoma
  GI50: 0.366 µM
  TGI: 2.96 µM
HOP-62 NSCLC
  GI50: 0.434 µM
  TGI: > 21.7 µM
PC-3 prostate
  GI50: 0.445 µM
  TGI: 12.3 µM
MCF7 breast
  GI50: 0.3 µM
  TGI: 14 µM
SF-295 CNS
  GI50: 0.311 µM
  TGI: 4.49 µM
SK-OV-3 ovarian
  GI50: 0.391 µM
  TGI: 3.69 µM
786-0 renal
  GI50: 0.425 µM
  TGI: 3.95 µM
COLO 205 colon
  GI50: 0.795 µM
  TGI: 2.85 µM
SW-620 colon
  GI50: 0.977 µM
  TGI: 10.8 µM
NCI/ADR-RES ovarian
  GI50: 0.827 µM
  TGI: 25.9 µM
MDA-MB-435
  GI50: 0.495 µM
  TGI: 3.56 µM
OVCAR-8 ovarian
  GI50: 0.453 µM
  TGI: 13.9 µM
CCRF-CEM leukemia
  GI50: 0.486 µM
  TGI: > 100 µM
HCT-15 colon
  GI50: 0.385 µM
  TGI: 11.5 µM
